Results from ChEMBL document CHEMBL1201862, “PubChem BioAssay data set” (2004).
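Cultured in 96-well plates, cells were exposed to test compound for 48 hours across five concentrations. The concentration for 50% growth inhibition is given as GI50.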 Activity calls are given as the source filed them. Rule as the data show it: active = GI50 up to about 1.1 µM and inactive = higher. Peptide text beside a SMILES is read from it. * marks the point of attachment. Cbz = O=C(OCc1ccccc1)*; OBn = c1ccc(CO*)cc1

Key:
Assay in all cases: NCI anticancer screen, dose series, 48 h
[1] = system: PC-3
[2] = system: RPMI-8226
[3] = system: SK-MEL-5
[4] = system: HOP-62
[5] = system: SF-295
[6] = system: HCT-116
[7] = system: SR
[8] = system: K562
[9] = system: M14
[10] = system: HCT-15
[11] = system: MCF7
[12] = system: SK-MEL-2
[13] = system: COLO 205
[14] = system: SN12C
[15] = system: OVCAR-3
[16] = system: RXF 393
[17] = system: NCI-H226
[18] = system: SNB-19
[19] = system: T47D
[20] = system: SF-539
[21] = system: MDA-MB-231
[22] = system: SNB-75
[23] = system: HCC 2998
[24] = system: Hs-578T
[25] = system: MOLT-4
[26] = system: NCI/ADR-RES
[27] = system: IGROV-1
[28] = system: MDA-MB-435
[29] = system: CAKI-1
[30] = system: UACC-62
[31] = system: SK-OV-3
[32] = system: 786-0
[33] = system: UO-31
[34] = system: SW-620
[35] = system: DU-145
[36] = system: OVCAR-8
[37] = system: BT-549
[38] = system: U-251
[39] = system: Malme-3M
[40] = system: MDA-N
[41] = system: KM12
[42] = system: HOP-92
[43] = system: NCI-H23
[44] = system: TK-10
[45] = system: NCI-H522
[46] = system: NCI-H460
[47] = system: OVCAR-5
[48] = system: HT-29
[49] = system: SK-MEL-28
[50] = system: UACC-257
[51] = system: A549
[52] = system: SF-268
[53] = system: CCRF-CEM
[54] = system: HL-60
[55] = system: ACHN
[56] = system: LOX IMVI
[57] = system: OVCAR-4
[58] = system: EKVX

SMILES: COC(=O)CNC(=O)C(C)NC(=O)C(CC(=O)OCc1ccccc1)NC(=O)OCc1ccccc1 (stereo not drawn) (Cbz-Asp(OBn)-Ala-Gly-OMe; configuration not given here)
- GI50 [1]: 24 µM (inactive)
- GI50 [2]: 39 µM (inactive)
- GI50 [3]: 17 µM (inactive)
- GI50 [4]: > 100 µM (inactive)
- GI50 [5]: 33.3 µM (inactive)
- GI50 [6]: 30.6 µM (inactive)
- GI50 [7]: 35.5 µM (inactive)
- GI50 [8]: 27.5 µM (inactive)
- GI50 [9]: > 100 µM (inactive)
- GI50 [10]: 53.7 µM
- GI50 [11]: 55.7 µM (inactive)
- GI50 [12]: 65.5 µM (inactive)
- GI50 [13]: 38.4 µM (inactive)
- GI50 [14]: 91.6 µM (inactive)
- GI50 [15]: 75 µM (inactive)
- GI50 [16]: 13.8 µM (inactive)
- GI50 [17]: 36.1 µM (inactive)
- GI50 [18]: 57.3 µM (inactive)
- GI50 [19]: 21.6 µM (inactive)
- GI50 [20]: 70.8 µM (inactive)
- GI50 [21]: 6.64 µM (inactive)
- GI50 [22]: 72.1 µM (inactive)
- GI50 [23]: 32.9 µM (inactive)
- GI50 [24]: 43.9 µM (inactive)
- GI50 [25]: 13.7 µM (inactive)
- GI50 [26]: 67.1 µM (inactive)
- GI50 [27]: > 100 µM (inactive)
- GI50 [28]: 37.1 µM (inactive)
- GI50 [29]: 79.8 µM (inactive)
- GI50 [30]: 58.3 µM (inactive)
- GI50 [31]: > 100 µM (inactive)
- GI50 [32]: > 100 µM (inactive)
- GI50 [33]: 19.1 µM (inactive)
- GI50 [34]: 35.7 µM (inactive)
- GI50 [35]: 93.5 µM (inactive)
- GI50 [36]: 81.8 µM (inactive)
- GI50 [37]: 37.8 µM (inactive)
- GI50 [38]: 47 µM (inactive)
- GI50 [39]: 45.2 µM (inactive)
- GI50 [40]: 53.6 µM (inactive)
- GI50 [41]: 73.6 µM (inactive)
- GI50 [42]: 66.5 µM (inactive)
- GI50 [43]: 36.6 µM (inactive)
- GI50 [44]: 20.5 µM (inactive)
- GI50 [45]: 34.3 µM (inactive)
- GI50 [46]: 50.7 µM (inactive)
- GI50 [47]: 39.4 µM (inactive)
- GI50 [48]: 65.5 µM (inactive)
- GI50 [49]: 80.2 µM (inactive)
- GI50 [50]: 32.4 µM (inactive)
- GI50 [51]: 39.5 µM (inactive)

SMILES: O=C1C(O)=C(CCCCCCCCC2CCCCC2)C(=O)c2ccccc21 [MENOCTONE]
- GI50 [1]: 5.09 µM (inactive)
- GI50 [2]: 6.15 µM (inactive)
- GI50 [3]: 10.4 µM (inactive)
- GI50 [4]: 11.6 µM (inactive)
- GI50 [5]: 6.98 µM (inactive)
- GI50 [6]: 3.33 µM (inactive)
- GI50 [7]: 6.4 µM (inactive)
- GI50 [52]: 7.03 µM (inactive)
- GI50 [8]: 2.51 µM (inactive)
- GI50 [9]: 10.8 µM (inactive)
- GI50 [10]: 4.69 µM
- GI50 [11]: 6.41 µM (inactive)
- GI50 [12]: 11.8 µM (inactive)
- GI50 [13]: 8.45 µM (inactive)
- GI50 [14]: 7.89 µM (inactive)
- GI50 [15]: 10.7 µM (inactive)
- GI50 [18]: 9.86 µM (inactive)
- GI50 [19]: 5.5 µM (inactive)
- GI50 [20]: 7.53 µM (inactive)
- GI50 [21]: 4.56 µM (inactive)
- GI50 [22]: 10.6 µM (inactive)
- GI50 [23]: 8.69 µM (inactive)
- GI50 [53]: 2.72 µM (inactive)
- GI50 [24]: 12.4 µM (inactive)
- GI50 [25]: 2.58 µM (inactive)
- GI50 [26]: 6.34 µM (inactive)
- GI50 [27]: 5.3 µM (inactive)
- GI50 [28]: 4.99 µM (inactive)
- GI50 [29]: 5.5 µM (inactive)
- GI50 [30]: 6.05 µM (inactive)
- GI50 [31]: 16.1 µM (inactive)
- GI50 [32]: 6.01 µM (inactive)
- GI50 [54]: 1 µM (active)
- GI50 [33]: 8.34 µM (inactive)
- GI50 [34]: 4.23 µM (inactive)
- GI50 [35]: 7.45 µM (inactive)
- GI50 [36]: 8.67 µM (inactive)
- GI50 [37]: 11.7 µM (inactive)
- GI50 [38]: 5.71 µM (inactive)
- GI50 [55]: 2.93 µM (inactive)
- GI50 [39]: 1.3 µM (inactive)
- GI50 [40]: 4.75 µM (inactive)
- GI50 [56]: 3.6 µM (inactive)
- GI50 [41]: 8.49 µM (inactive)
- GI50 [42]: 10 µM (inactive)
- GI50 [43]: 3.33 µM (inactive)
- GI50 [44]: 14.7 µM (inactive)
- GI50 [45]: 6.24 µM (inactive)
- GI50 [46]: 4.3 µM (inactive)
- GI50 [47]: 17 µM (inactive)
- GI50 [48]: 12 µM (inactive)
- GI50 [57]: 16.5 µM (inactive)
- GI50 [49]: 11.4 µM (inactive)
- GI50 [58]: 4.55 µM (inactive)
- GI50 [50]: 6.28 µM (inactive)
- GI50 [51]: 5.58 µM (inactive)
